From US4496551A (priority 1983, dated 1985) come the findings set out here.

The subject of the first experiment is Rhizoctonia solani. Briefly: rice sheath blight control on rice seedlings. Type of experiment: in vivo. The following applies: 100 ppm, 7 days. The procedure: Several compounds of the previous examples were again dissolved in acetone in an amount equal to 6% of the final volume and then suspended at a concentration of 100 ppm in purified water containing 250 ppm of the surfactant TREM 014 (polyhydric alcohol esters). This suspension was sprayed to the point of run-off on rice seedlings. The following day, the plants were inoculated with a mixture of bran and the mycelium of Rhizoctonia solani, causal agent of sheath blight of rice, and incubated in a growth room for 7 days. Disease ratings were then made. Treated plants from successful treatments had little sheath blight in contrast to untreated plants which were covered with sheath blight.
Consider `C[Si](C)(Cn1ccnc1)c1ccc(-c2ccccc2)cc1.[Cl][Cu]` [1:1 complex of (1,1'-Biphenyl-4-yl)dimethyl(1H-imidazol-1-ylmethyl)silane and Cuprous Chloride], for which the “% Control of Rice Sheath Blight” value worked out at 50%.

The experiment is the same for the next values; noted with them: Rhizoctonia solani, 168 h, 7 days.
`C[Si](C)(Cn1ccnc1)c1ccccc1-c1ccccc1` [(1,1'-Biphenyl-2-yl)dimethyl(1H-imidazol-1-ylmethyl)silane] gave a pest or weed control at 100 ppm of 90%.
On the same count and under the same terms, then `C[Si](C)(Cn1ccnc1)c1cccc(-c2ccccc2)c1` [(1,1'-Biphenyl-3-yl)dimethyl(1H-imidazol-1-ylmethyl)silane], with 90%.
`C[Si](Cn1ccnc1)(c1ccccc1)c1ccc(-c2ccccc2)cc1` (stereo not shown) [(1,1'-Biphenyl-4-yl)(1H-imidazol-1-ylmethyl)methyl(phenyl)silane] showed a pest or weed control at 100 ppm of 0%.
Compound `C[Si](Cn1ccnc1)(c1ccc(F)cc1)c1ccc(-c2ccccc2)cc1` (stereo not shown) [(1,1'-Biphenyl-4-yl)(4-fluorophenyl)(1H-imidazol-1-ylmethyl)methylsilane] yielded a pest or weed control at 100 ppm of 0%.
Compound `CC(C)(C)O[Si](C)(Cn1ccnc1)c1ccccc1` (stereo not shown) [(1,1-Dimethylethoxy)(1H-imidazol-1-ylmethyl)methyl(phenyl)silane] registered a pest or weed control at 100 ppm of 0%.

The subject of the next experiment is Cercospora arachidicola. The experiment can be described thus: peanut early leafspot control on peanut seedlings. Type of experiment: in vivo. As to conditions: 100 ppm. The procedure:
Compounds of the previous examples were again dissolved in acetone in an amount equal to 6% of the final volume and then suspended at a concentration of 100 ppm in purified water containing 250 ppm of the surfactant TREM 014 (polyhydric alcohol esters). This suspension was sprayed to the point of run-off on peanut seedlings. The following day, the plants were inoculated with a spore suspension of Cercospora arachidicola, causal agent of peanut early leafspot, and incubated in a saturated humidity chamber at 27° for 24 hours and then in a growth room for an additional 14 days, when disease ratings were made. Treated plants from successful treatments had few or no leafspots while the untreated plants had numerous leafspots on each leaf.
Take `C[Si](C)(Cn1ccnc1)c1ccc(-c2ccccc2)cc1.[Cl][Cu]` [1:1 complex of (1,1'-Biphenyl-4-yl)dimethyl(1H-imidazol-1-ylmethyl)silane and Cuprous Chloride]: the “% Control Peanut Early Leafspot” value stood at 100%.

The experiment is the same for the next values; noted with them: Mycosphaerella arachidis, 336 h.
As to `C[Si](C)(Cn1ccnc1)c1ccccc1-c1ccccc1` [(1,1'-Biphenyl-2-yl)dimethyl(1H-imidazol-1-ylmethyl)silane], the pest or weed control at 100 ppm is 30%.
The same measure, in the same setting: then `C[Si](C)(Cn1ccnc1)c1cccc(-c2ccccc2)c1` [(1,1'-Biphenyl-3-yl)dimethyl(1H-imidazol-1-ylmethyl)silane], with 80%; and `C[Si](Cn1ccnc1)(c1ccccc1)c1ccc(-c2ccccc2)cc1` (stereo not shown) [(1,1'-Biphenyl-4-yl)(1H-imidazol-1-ylmethyl)methyl(phenyl)silane], with 80%.
On the same count and under the same terms, in the case of `C[Si](Cn1ccnc1)(c1ccc(F)cc1)c1ccc(-c2ccccc2)cc1` (stereo not shown) [(1,1'-Biphenyl-4-yl)(4-fluorophenyl)(1H-imidazol-1-ylmethyl)methylsilane] it was 100%; in that of `CC(C)(C)O[Si](C)(Cn1ccnc1)c1ccccc1` (stereo not shown) [(1,1-Dimethylethoxy)(1H-imidazol-1-ylmethyl)methyl(phenyl)silane], 0%.

In a further experiment the test system is Phytophthora infestans. Briefly: whole plant or invertebrate. Type of experiment: in vivo. The following applies: 100 ppm.
Turning to `C[Si](C)(Cn1ccnc1)c1ccc(-c2ccccc2)cc1.[Cl][Cu]` [1:1 complex of (1,1'-Biphenyl-4-yl)dimethyl(1H-imidazol-1-ylmethyl)silane and Cuprous Chloride], the “% Control of Tomato Late Blight” value turned out to be 0%.

Staying with this experiment, now noted: Phytophthora infestans, in Solanum lycopersicum, 168 h, read-out: % Control of Tomato Late Blight.
On to `C[Si](C)(Cn1ccnc1)c1ccccc1-c1ccccc1` [(1,1'-Biphenyl-2-yl)dimethyl(1H-imidazol-1-ylmethyl)silane], for which the pest or weed control at 100 ppm stood at 0%.
Still for that read-out and setting: in the case of `C[Si](C)(Cn1ccnc1)c1cccc(-c2ccccc2)c1` [(1,1'-Biphenyl-3-yl)dimethyl(1H-imidazol-1-ylmethyl)silane] it was 0%; in that of `C[Si](Cn1ccnc1)(c1ccccc1)c1ccc(-c2ccccc2)cc1` (stereo not shown) [(1,1'-Biphenyl-4-yl)(1H-imidazol-1-ylmethyl)methyl(phenyl)silane], 0%; in that of `C[Si](Cn1ccnc1)(c1ccc(F)cc1)c1ccc(-c2ccccc2)cc1` (stereo not shown) [(1,1'-Biphenyl-4-yl)(4-fluorophenyl)(1H-imidazol-1-ylmethyl)methylsilane], 0%.
With `CC(C)(C)O[Si](C)(Cn1ccnc1)c1ccccc1` (stereo not shown) [(1,1-Dimethylethoxy)(1H-imidazol-1-ylmethyl)methyl(phenyl)silane], the pest or weed control at 100 ppm turned out to be 0%.

The subject of a further experiment is Puccinia recondita var. tritici. The experiment can be described thus: wheat leaf rust control on wheat seedlings. Type of experiment: in vivo. The following applies: 100 ppm, sprayed day before inoculation. The procedure: (§1) Compounds of this invention were dissolved in acetone in an amount equal to 6% of the final volume and then suspended at a concentration of 100 ppm in purified water containing 250 ppm of the surfactant TREM 014 (polyhydric alcohol esters). This suspension was sprayed to the point of run-off on wheat seedlings. The following day, the plants were inoculated with a spore suspension of Puccinia recondita var. tritici, causal agent of wheat leaf rust, and incubated in a saturated humidity chamber at 20° for 24 hours and then in a growth room for an additional 7 days, when disease ratings were made. Treated plants from successful treatments had few or no rust pustules while the untreated plants had numerous rust pustules on each leaf.
Regarding `C[Si](C)(Cn1ccnc1)c1ccc(-c2ccccc2)cc1.[Cl][Cu]` [1:1 complex of (1,1'-Biphenyl-4-yl)dimethyl(1H-imidazol-1-ylmethyl)silane and Cuprous Chloride], the “% Control Wheat Leaf Rust” value came out at 100%.
`C[Si](C)(Cn1ccnc1)c1ccccc1-c1ccccc1` [(1,1'-Biphenyl-2-yl)dimethyl(1H-imidazol-1-ylmethyl)silane] gave a pest or weed control at 100 ppm of 0%.
Regarding `C[Si](C)(Cn1ccnc1)c1cccc(-c2ccccc2)c1` [(1,1'-Biphenyl-3-yl)dimethyl(1H-imidazol-1-ylmethyl)silane], the pest or weed control at 100 ppm is 90%.
The same measure, in the same setting: then `C[Si](Cn1ccnc1)(c1ccccc1)c1ccc(-c2ccccc2)cc1` (stereo not shown) [(1,1'-Biphenyl-4-yl)(1H-imidazol-1-ylmethyl)methyl(phenyl)silane], with 100%; and `C[Si](Cn1ccnc1)(c1ccc(F)cc1)c1ccc(-c2ccccc2)cc1` (stereo not shown) [(1,1'-Biphenyl-4-yl)(4-fluorophenyl)(1H-imidazol-1-ylmethyl)methylsilane], with 80%; and `CC(C)(C)O[Si](C)(Cn1ccnc1)c1ccccc1` (stereo not shown) [(1,1-Dimethylethoxy)(1H-imidazol-1-ylmethyl)methyl(phenyl)silane], with 0%.

For a further experiment, the system named is Helminthosporium maydis. Briefly: southern corn leaf blight control on corn seedlings. Type of experiment: in vivo. As to conditions: 100 ppm. The procedure: Compounds of the previous example were again dissolved in acetone in an amount equal to 6% of the final volume and then suspended at a concentration of 100 ppm in purified water containing 250 ppm of the surfactant TREM 014 (polyhydric alcohol esters). This suspension was sprayed to the point of run-off on corn seedlings. The following day, the plants were inoculated with a spore suspension of Helminthosporium maydis, causal agent of southern corn leaf blight, and incubated in a saturated humidity chamber at 20° for 24 hours and then in a growth room for an additional 7 days, when disease ratings were made. Treated plants from successful treatments had few lesions while the untreated plants had numerous lesions on each leaf.
With `C[Si](C)(Cn1ccnc1)c1ccc(-c2ccccc2)cc1.[Cl][Cu]` [1:1 complex of (1,1'-Biphenyl-4-yl)dimethyl(1H-imidazol-1-ylmethyl)silane and Cuprous Chloride], the “% Control of Southern Corn Leaf Blight” value stood at 0%.

The experiment is the same for the next values; noted with them: Bipolaris maydis, 168 h.
For `C[Si](C)(Cn1ccnc1)c1ccccc1-c1ccccc1` [(1,1'-Biphenyl-2-yl)dimethyl(1H-imidazol-1-ylmethyl)silane], the pest or weed control at 100 ppm worked out at 0%.
Same read-out and setting: then `C[Si](C)(Cn1ccnc1)c1cccc(-c2ccccc2)c1` [(1,1'-Biphenyl-3-yl)dimethyl(1H-imidazol-1-ylmethyl)silane], with 90%.
As to `C[Si](Cn1ccnc1)(c1ccccc1)c1ccc(-c2ccccc2)cc1` (stereo not shown) [(1,1'-Biphenyl-4-yl)(1H-imidazol-1-ylmethyl)methyl(phenyl)silane], the pest or weed control at 100 ppm was determined as 80%.
With `C[Si](Cn1ccnc1)(c1ccc(F)cc1)c1ccc(-c2ccccc2)cc1` (stereo not shown) [(1,1'-Biphenyl-4-yl)(4-fluorophenyl)(1H-imidazol-1-ylmethyl)methylsilane], the pest or weed control at 100 ppm is 70%.
The same measure, in the same setting: in the case of `CC(C)(C)O[Si](C)(Cn1ccnc1)c1ccccc1` (stereo not shown) [(1,1-Dimethylethoxy)(1H-imidazol-1-ylmethyl)methyl(phenyl)silane] it was 0%.

The next experiment relates to Erysiphe cichoracearum. The experiment can be described thus: cucumber powdery mildew control on cucumber seedlings. Type of experiment: in vivo. As to conditions: 100 ppm, 7 days. As for the experimental part:
Compounds of the previous examples were again dissolved in acetone in an amount equal to 6% of the final volume and then suspended at a concentration of 100 ppm in purified water containing 250 ppm of the surfactant TREM 014 (polyhydric alcohol esters). This suspension was sprayed to the point of run-off on cucumber seedlings. The following day, the plants were inoculated with a spore suspension of the fungus Erysiphe cichoracearum, causal agent of cucumber powdery mildew, and incubated in a growth room for 7 days. Disease ratings were then made. Treated plants from successful treatments had little or no powdery mildew in contrast to untreated plants which were covered with powdery mildew.
`C[Si](C)(Cn1ccnc1)c1ccc(-c2ccccc2)cc1.[Cl][Cu]` [1:1 complex of (1,1'-Biphenyl-4-yl)dimethyl(1H-imidazol-1-ylmethyl)silane and Cuprous Chloride]: the “% Control Cucumber Powdery Mildew” value worked out at 100%.

The experiment is the same for the next values; noted with them: Golovinomyces cichoracearum, 168 h, 7 days.
The compound `C[Si](C)(Cn1ccnc1)c1ccccc1-c1ccccc1` [(1,1'-Biphenyl-2-yl)dimethyl(1H-imidazol-1-ylmethyl)silane] yielded a pest or weed control at 100 ppm of 50%.
On the same count and under the same terms, then `C[Si](C)(Cn1ccnc1)c1cccc(-c2ccccc2)c1` [(1,1'-Biphenyl-3-yl)dimethyl(1H-imidazol-1-ylmethyl)silane], with 0%; and `C[Si](Cn1ccnc1)(c1ccccc1)c1ccc(-c2ccccc2)cc1` (stereo not shown) [(1,1'-Biphenyl-4-yl)(1H-imidazol-1-ylmethyl)methyl(phenyl)silane], with 100%.
Turning to `C[Si](Cn1ccnc1)(c1ccc(F)cc1)c1ccc(-c2ccccc2)cc1` (stereo not shown) [(1,1'-Biphenyl-4-yl)(4-fluorophenyl)(1H-imidazol-1-ylmethyl)methylsilane], the pest or weed control at 100 ppm amounted to 100%.
The same measure, in the same setting: then `CC(C)(C)O[Si](C)(Cn1ccnc1)c1ccccc1` (stereo not shown) [(1,1-Dimethylethoxy)(1H-imidazol-1-ylmethyl)methyl(phenyl)silane], with 100%.

A further experiment has as its system Pyricularia oryzae. The experiment can be described thus: whole plant or invertebrate. Type of experiment: in vivo. As to conditions: 168 h, read-out: % Control of Rice Blast.
Take `C[Si](C)(Cn1ccnc1)c1ccccc1-c1ccccc1` [(1,1'-Biphenyl-2-yl)dimethyl(1H-imidazol-1-ylmethyl)silane]: the pest or weed control at 100 ppm was found to be 90%.
The same measure, in the same setting: then `C[Si](C)(Cn1ccnc1)c1cccc(-c2ccccc2)c1` [(1,1'-Biphenyl-3-yl)dimethyl(1H-imidazol-1-ylmethyl)silane], with 80%; and `C[Si](Cn1ccnc1)(c1ccccc1)c1ccc(-c2ccccc2)cc1` (stereo not shown) [(1,1'-Biphenyl-4-yl)(1H-imidazol-1-ylmethyl)methyl(phenyl)silane], with 0%; and `CC(C)(C)O[Si](C)(Cn1ccnc1)c1ccccc1` (stereo not shown) [(1,1-Dimethylethoxy)(1H-imidazol-1-ylmethyl)methyl(phenyl)silane], with 0%.

In the next experiment the test system is Venturia inaequalis. The experiment can be described thus: apple scab control on apple seedlings. Type of experiment: in vivo. As to conditions: 100 ppm. As for the experimental part: as §1, with “apple” for “wheat”, “the fungus Venturia inaequalis,” for “Puccinia recondita var. tritici,”, “apple scab,” for “wheat leaf rust,”, “10-12 days.” for “7 days, when disease ratings were made.”, “apple scab lesions when compared to” for “rust pustules while the”, “which were covered with scab lesions.” for “had numerous rust pustules on each leaf.”
Take `C[Si](C)(Cn1ccnc1)c1ccc(-c2ccccc2)cc1.[Cl][Cu]` [1:1 complex of (1,1'-Biphenyl-4-yl)dimethyl(1H-imidazol-1-ylmethyl)silane and Cuprous Chloride]: the “% Control Apple Scab” value came out at 100%.

The same experiment, now with this note: Venturia inaequalis; 100 ppm.
Take `C[Si](C)(Cn1ccnc1)c1ccccc1-c1ccccc1` [(1,1'-Biphenyl-2-yl)dimethyl(1H-imidazol-1-ylmethyl)silane]: the pest or weed control at 100 ppm amounted to 90%.
In turn, `C[Si](C)(Cn1ccnc1)c1cccc(-c2ccccc2)c1` [(1,1'-Biphenyl-3-yl)dimethyl(1H-imidazol-1-ylmethyl)silane] registered a pest or weed control at 100 ppm of 90%.
With `C[Si](Cn1ccnc1)(c1ccccc1)c1ccc(-c2ccccc2)cc1` (stereo not shown) [(1,1'-Biphenyl-4-yl)(1H-imidazol-1-ylmethyl)methyl(phenyl)silane], the pest or weed control at 100 ppm is 0%.
The same measure, in the same setting: then `C[Si](Cn1ccnc1)(c1ccc(F)cc1)c1ccc(-c2ccccc2)cc1` (stereo not shown) [(1,1'-Biphenyl-4-yl)(4-fluorophenyl)(1H-imidazol-1-ylmethyl)methylsilane], with 50%.
Same read-out and setting: then `CC(C)(C)O[Si](C)(Cn1ccnc1)c1ccccc1` (stereo not shown) [(1,1-Dimethylethoxy)(1H-imidazol-1-ylmethyl)methyl(phenyl)silane], with 0%.
